# In patent US20240216357A1 (SICHUAN HUIYU PHARMACEUTICAL CO., LTD., priority 2021, published 2024):
# Where a name gives a salt, the structure may show the parent alone.
# Molecular target: LSD1 (Homo sapiens (Human), UniProt O60341)
# Test: LSD1 enzyme activity detection (HTRF)
# Type: biochemical
# Details: HTRF, H3K4me1 substrate; read-out: Inhibition of enzymatic activity of LSD1 IC50
row,Compound,IC50
1,"CC(C)(O)Cn1ncc2cc(F)c(-c3c(O)cc(N4CCC(N)CC4)nc3-c3ccc(C#N)c(F)c3)cc21 [Example 28, hydrochloride]",0.441 µM
2,"N#Cc1ccc(-c2nc(N3CCC(N)CC3)cc(O)c2-c2ccc3c(c2)OC(F)(F)O3)cc1F [Example 30, 4-(6-(4-aminopiperidin-1-yl)-3-(2,2-difluorobenzo[d][1,3]dioxol-5-yl)-4-hydroxypyridin-2-yl)-2-fluorobenzonitrile hydrochloride]",0.213 µM
3,"COc1ccc(-c2c(O)cc(N3CCC(N)CC3)nc2-c2ccc(C#N)c(F)c2)cc1OC [Example 33, 4-(6-(4-aminopiperidin-1-yl)-3-(3,4-dimethoxyphenyl)-4-hydroxypyridin-2-yl)-2-fluorobenzonitrile hydrochloride]",0.21 µM
4,"COc1ccc(-c2c(O)cc(NC3CCNCC3)nc2-c2ccc(C#N)c(F)c2)cc1F [Example 40, 2-fluoro-4-(3-(3-fluoro-4-methoxyphenyl)-4-hydroxy-6-(piperidin-4-ylamino)pyridin-2-yl)benzonitrile]",0.28 µM
5,"COc1ccc(-c2cnc(N3CC4CCC(C3)C4N)c(C#N)c2-c2ccc(C#N)c(F)c2)cc1O (stereo not shown) [Example 74, 2-(8-amino-3-azabicyclo[3.2.1]octane-3-yl)-4-(4-cyano-3-fluorophenyl)-5-(3-hydroxy-4-methoxyphenyl) nicotinonitrile]",0.166 µM
6,"COc1ccc(-c2cnc(N3C4CCCC3CC(N)C4)c(C#N)c2-c2ccc(C#N)c(F)c2)cc1O (stereo not shown) [Example 75, 2-(3-amino-9-azabicyclo [3.3.1]nonan-9-yl)-4-(4-cyano-3-fluorophenyl)-5-(3-hydroxy-4-methoxyphenyl) nicotinonitrile]",0.5 µM
7,"COc1ccc(-c2cnc(N3C4CCC3CC(N)C4)c(C#N)c2-c2ccc(C#N)c(F)c2)cc1O (stereo not shown) [Example 81, 2-(3-amino-8-azabicyclo [3.2.1]octane-8-yl)-4-(4-cyano-3-fluorophenyl)-5-(3-hydroxy-4-methoxyphenyl) nicotinonitrile]",0.671 µM
8,"Cc1noc2cc(-c3c(OCc4ccccc4)cc(N4C5CCC4CC(N)C5)nc3-c3ccc(C#N)c(F)c3)c(F)cc12 (stereo not shown) [Example 88, 4-(6-(3-amino-8-azabicyclo [3.2.1]octane-8-yl)-4-(benzyloxy)-3-(5-fluoro-3-methylbenzo[d]isoxazol-6-yl)pyridin-2-yl)-2-fluorobenzonitrile]",0.566 µM
9,"COc1ccc(-c2cc(N3CCC(N)CC3)nc(-c3ccc(C#N)c(F)c3)c2OC)cc1F [Example 102, 4-(6-(4-aminopiperidin-1-yl)-4-(3-fluoro-4-methoxyphenyl)-3-methoxypyridin-2-yl)-2-fluoroben zonitrile]",0.712 µM
10,"COc1cc(-c2c(-c3ccc(C#N)c(F)c3)nc(N3CCC(N)CC3)n3ccnc23)ccc1O [Example 141, 4-(5-(4-aminopiperidin-1-yl)-8-(4-hydroxy-3-methoxyphenyl)imidazolo[1,2-c]pyrimidin-7-yl)-2-fluorobenzonitrile formate]",0.224 µM
11,"COc1ccc(-c2c(C3CCC(C#N)CC3)nc(N3C4CCC3CC(N)C4)n3ccnc23)cc1F (stereo not shown) [Example 179, 4-(5-(3-amino-8-azadicyclo [3.2.1]octane-8-yl)-8-(3-fluoro-4-methoxyphenyl)imidazolo[1,2-c]pyrimidin-7-yl) cyclohexane-1-carbonitrile hydrochloride]",0.939 µM
12,"COc1ccc(-c2c(-c3cnc(C#N)nc3)nc(N3C4CCC3CC(N)C4)n3ccnc23)cc1F (stereo not shown) [Example 180, 5-(5-(3-amino-8-azabicyclo [3.2.1]octane-8-yl)-8-(3-fluoro-4-methoxyphenyl)imidazolo[1,2-c]pyrimidin-7-yl) pyrimidin-2-carbonitrile]",0.0771 µM

# Same assay, conditions: read-out: Inhibition of enzymatic activity of LSD1 IC50
row,Compound,IC50
1,"N#Cc1ccc(-c2nc(N3CCC(N)CC3)cc(O)c2-c2ccc3[nH]nc(Cl)c3c2)cc1F [Example 20, hydrochloride]",0.166 µM
